Results: ChEMBL document CHEMBL1201862, “PubChem BioAssay data set” (2004)
Activity calls are given as the source filed them.

Columns and labels:
[1] = system: INS1; test: INS-1E survival protection against cytokine death – cell-based, luminescence, retest, dose response (AID 449756); assay type: functional; settings: Rattus norvegicus;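 also: cell death triggered by IL-1 beta plus TNF-alpha plus IFN-gamma mixture; protective hits raise ATP signal compared with cytokine alone wells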
[2] = molecular target: Beta-galactosidase (Escherichia coli, UniProt Q8VNN2); test: detection-enzyme interference by beta-gal modulators – biochemical, E. coli enzyme, set 3, artefact control for CCR6 antagonist project, dose response (AID 504712); assay type: functional
[3] = molecular target: Heat shock protein HSP 90-alpha (Homo sapiens, UniProt P07900); assay type: functional, organism-based
[4] = Luminescence Cell-Based Dose Retest to Confirm Inhibitors of Cancer Stem Cells. [Related pubchem assays (depositor defined):AID2717, AID2721]; assay type: functional; settings: Homo sapiens
[5] = viability of PTEN-deleted HCT116 cells – cell-based, HCT116 PTEN knockout, dose response (AID 1047); assay type: functional;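 also: HCT116 colon tumor cells with PTEN knocked out; cells exposed to compound for 60 hours before readout; potency for loss of cell viability measured by luminescence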
[6] = molecular target: Cytochrome P450 2C9 (Homo sapiens, UniProt P11712)
[7] = viability of HCT116 lacking mutant beta-catenin – cell-based, human colon tumor, dose response (AID 1045); assay type: functional;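 also: HCT116 colon tumor cells with beta catenin knocked out; cells exposed to compound for 60 hours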
[8] = molecular target: Cytochrome P450 2C19 (Homo sapiens, UniProt P33261); test: Cytochrome panel assay with activity outcomes. Panel member name: p450-cyp2c19 Compounds with AC50 equal or less than 10 uM are considered active; assay type: functional; settings: read-out: AC50
[9] = molecular target: T1, Kappa-type opioid receptor (Homo sapiens, UniProt P41145); test: SAR analysis of small molecule agonists of the kappa opioid receptor via a luminescent beta-arrestin assay. [Related pubchem assays (depositor defined):AID1777, AID1786, AID1966, AID2133, AID2136, AID2348, AID2352, AID2357, AID2359, AID2370, AID2420, AID2478, AID2491, AID2492, AID2493, AID2497, AID2498, AID2500, AID449737, AID488822, AID488842]; assay type: functional
[10] = molecular target: T2, Mu-type opioid receptor (Homo sapiens, UniProt P35372); test: mu opioid receptor blockers – image-based, SAR follow-up (AID 2420); assay type: functional;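 also: compounds added before stimulation of receptor with agonist DAMGO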
[11] = molecular target: T2, Mu-type opioid receptor; test: HTS Image-Based Screen for Agonists of the MOR Receptor. [Related pubchem assays (depositor defined):AID1777, AID1785, AID1786, AID2133]; assay type: functional
[12] = molecular target: T2, Mu-type opioid receptor; test: mu opioid receptor activators, image-based, SAR follow-up (AID 2352); assay type: functional
[13] = molecular target: T3, Delta-type opioid receptor (Homo sapiens, UniProt P41143); test: HTS Image-Based Screen for Antagonists of the DOR Receptor. [Related pubchem assays (depositor defined):AID1777, AID1785, AID1786, AID2133]; assay type: functional
[14] = molecular target: T3, Delta-type opioid receptor; test: delta opioid receptor blockers – image-based, SAR follow-up (AID 2357); assay type: functional
[15] = molecular target: T3, Delta-type opioid receptor; test: DOR agonists, SAR follow-up, image-based (AID 2370); assay type: functional
[16] = molecular target: T3, Delta-type opioid receptor; test: HTS Image-Based Screen for Agonists of the DOR Receptor. [Related pubchem assays (depositor defined):AID1777, AID1786, AID2133]; assay type: functional
[17] = molecular target: T1, Kappa-type opioid receptor; assay type: functional
[18] = molecular target: T1, Kappa-type opioid receptor; test: kappa opioid receptor activation potency – imaging, image-based, SAR follow-up (AID 2359); assay type: functional
[19] = molecular target: T1, Kappa-type opioid receptor; test: kappa opioid receptor blockers, image-based, SAR follow-up (AID 2348); assay type: functional
[20] = molecular target: T1, Kappa-type opioid receptor; assay type: functional; remark: listed apart in the source
[21] = molecular target: T4, Short transient receptor potential channel 4 (Mus musculus, UniProt Q9QUQ5); test: potentiation of DAMGO-evoked TRPC4 calcium signal – cell-based, HEK293 TRPC4/mu-opioid, Fluo-4 calcium, EC20 DAMGO, dose response (AID 434941); assay type: functional
T4 sequence (Q9QUQ5 whole entry): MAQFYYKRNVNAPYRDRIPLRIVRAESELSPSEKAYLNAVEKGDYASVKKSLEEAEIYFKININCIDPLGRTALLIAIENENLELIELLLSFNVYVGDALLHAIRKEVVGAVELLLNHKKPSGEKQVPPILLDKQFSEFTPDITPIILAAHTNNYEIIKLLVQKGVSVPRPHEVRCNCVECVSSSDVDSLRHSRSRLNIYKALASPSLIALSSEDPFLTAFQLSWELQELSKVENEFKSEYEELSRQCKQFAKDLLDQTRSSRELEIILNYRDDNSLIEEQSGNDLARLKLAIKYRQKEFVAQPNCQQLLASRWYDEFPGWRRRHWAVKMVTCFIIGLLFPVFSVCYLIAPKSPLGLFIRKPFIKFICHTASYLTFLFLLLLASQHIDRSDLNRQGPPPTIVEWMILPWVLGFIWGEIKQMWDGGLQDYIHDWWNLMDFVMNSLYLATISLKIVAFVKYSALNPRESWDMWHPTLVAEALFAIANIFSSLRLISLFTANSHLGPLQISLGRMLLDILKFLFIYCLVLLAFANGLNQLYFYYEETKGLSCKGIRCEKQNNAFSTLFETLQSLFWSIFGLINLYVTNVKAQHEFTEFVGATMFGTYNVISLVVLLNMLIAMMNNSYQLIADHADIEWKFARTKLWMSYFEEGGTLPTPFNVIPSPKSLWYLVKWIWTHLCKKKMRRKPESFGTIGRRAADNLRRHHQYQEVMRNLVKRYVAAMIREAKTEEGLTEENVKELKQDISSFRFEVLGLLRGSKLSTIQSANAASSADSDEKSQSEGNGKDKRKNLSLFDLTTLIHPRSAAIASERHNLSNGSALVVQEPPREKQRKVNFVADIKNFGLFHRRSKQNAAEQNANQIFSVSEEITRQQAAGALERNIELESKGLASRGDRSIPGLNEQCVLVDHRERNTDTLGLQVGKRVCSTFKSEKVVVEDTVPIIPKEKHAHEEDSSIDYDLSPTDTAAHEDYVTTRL

[22] = system: Streptococcus sp. 'group A'; test: Streptococcus pyogenes SK(-)GAS viability under kanamycin – luminescence, BacTiterGlo, confirmation, counter-screen for streptokinase expression inhibitor project, dose response (AID 1900); assay type: functional, organism-based
[23] = molecular target: T5, Streptokinase A (Streptococcus pyogenes serotype M1, UniProt P10520); test: viability-normalized secreted streptokinase activity reduction – plasminogen activation absorbance, OD405, dose response (AID 1914); assay type: functional, Streptococcus pyogenes M1 GAS;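 also: secreted streptokinase activity via plasminogen activation per viability signal from cell pellet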
T5 sequence (P10520 whole entry): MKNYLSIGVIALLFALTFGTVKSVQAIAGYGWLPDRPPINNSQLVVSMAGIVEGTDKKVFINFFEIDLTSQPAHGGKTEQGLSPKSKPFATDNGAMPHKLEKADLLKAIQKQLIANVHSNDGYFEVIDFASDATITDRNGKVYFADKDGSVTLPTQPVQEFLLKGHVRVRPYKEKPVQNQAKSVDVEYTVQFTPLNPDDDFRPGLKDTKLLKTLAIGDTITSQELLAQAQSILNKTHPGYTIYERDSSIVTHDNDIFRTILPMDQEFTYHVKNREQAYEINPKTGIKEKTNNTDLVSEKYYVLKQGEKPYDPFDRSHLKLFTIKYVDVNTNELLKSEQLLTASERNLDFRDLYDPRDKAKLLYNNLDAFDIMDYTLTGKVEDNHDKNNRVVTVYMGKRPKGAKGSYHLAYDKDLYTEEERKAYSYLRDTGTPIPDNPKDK

[24] = system: Streptococcus; test: GAS UMAA2166 growth inhibition – luminescence, BacTiterGlo, counter-screen for streptokinase expression inhibitor project, dose response (AID 1915); assay type: functional, organism-based;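 also: potency for reduction of bacterial viability or growth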
[25] = molecular target: G-protein coupled receptor 35 (Homo sapiens, UniProt Q9HC97); test: inhibition of zaprinast-stimulated GPR35 beta-arrestin translocation – imaging, U2OS, beta-arrestin-GFP, zaprinast agonist, primary screen (AID 2058); assay type: functional;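 also: antagonist potency meaning inhibition of agonist-induced arrestin redistribution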
[26] = molecular target: Trypsin (Sus scrofa, UniProt P00761); test: trypsin protease activity blockade – biochemical, quenched peptide fluorescence, cherry-pick, selectivity assay for Rce1 protease inhibitor project, dose response (AID 488789)
[27] = molecular target: Female germline-specific tumor suppressor gld-1 (Caenorhabditis elegans, UniProt Q17339); test: blockers of GLD-1/TGE RNA complex formation – biochemical, fluorescence polarization, C. elegans, dose response (AID 2802);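 also: fluorescence polarization of labeled TGE RNA bound by purified gld-1 protein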
[28] = molecular target: Protein Rev (Human immunodeficiency virus type 1 group M subtype B (isolate HXB2)(HIV-1), UniProt P04618); test: blockers of HIV Rev/RRE RNA complex – biochemical, fluorescence polarization, HIV-1, dose response (AID 434976); design: species or system Human immunodeficiency virus 1
Protein Rev, sequence (P04618 whole entry): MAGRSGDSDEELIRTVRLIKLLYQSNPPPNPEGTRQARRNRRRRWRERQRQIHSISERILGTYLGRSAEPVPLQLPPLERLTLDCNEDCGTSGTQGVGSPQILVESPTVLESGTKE

T3 sequence (P41143 whole entry): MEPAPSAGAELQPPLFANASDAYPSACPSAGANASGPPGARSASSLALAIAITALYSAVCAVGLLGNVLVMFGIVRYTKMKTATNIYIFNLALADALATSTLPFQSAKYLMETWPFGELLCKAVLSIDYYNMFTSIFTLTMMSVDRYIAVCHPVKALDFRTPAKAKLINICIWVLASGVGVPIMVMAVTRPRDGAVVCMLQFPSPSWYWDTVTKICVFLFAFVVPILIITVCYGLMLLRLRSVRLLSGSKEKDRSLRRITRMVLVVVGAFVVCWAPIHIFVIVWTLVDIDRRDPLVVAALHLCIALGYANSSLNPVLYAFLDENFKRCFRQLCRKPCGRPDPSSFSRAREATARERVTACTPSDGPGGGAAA
T2 sequence (P35372 whole entry): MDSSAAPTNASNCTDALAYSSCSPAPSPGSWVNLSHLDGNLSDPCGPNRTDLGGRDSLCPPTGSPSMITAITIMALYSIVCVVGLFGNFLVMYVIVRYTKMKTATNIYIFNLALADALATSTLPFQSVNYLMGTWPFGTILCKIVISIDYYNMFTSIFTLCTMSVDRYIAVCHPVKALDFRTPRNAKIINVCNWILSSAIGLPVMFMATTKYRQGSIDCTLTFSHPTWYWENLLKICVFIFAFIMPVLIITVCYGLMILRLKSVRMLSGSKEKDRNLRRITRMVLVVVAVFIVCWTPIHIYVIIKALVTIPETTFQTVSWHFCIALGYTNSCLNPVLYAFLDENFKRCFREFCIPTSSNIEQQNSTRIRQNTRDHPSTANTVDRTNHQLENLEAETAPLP
T1 sequence (P41145 whole entry): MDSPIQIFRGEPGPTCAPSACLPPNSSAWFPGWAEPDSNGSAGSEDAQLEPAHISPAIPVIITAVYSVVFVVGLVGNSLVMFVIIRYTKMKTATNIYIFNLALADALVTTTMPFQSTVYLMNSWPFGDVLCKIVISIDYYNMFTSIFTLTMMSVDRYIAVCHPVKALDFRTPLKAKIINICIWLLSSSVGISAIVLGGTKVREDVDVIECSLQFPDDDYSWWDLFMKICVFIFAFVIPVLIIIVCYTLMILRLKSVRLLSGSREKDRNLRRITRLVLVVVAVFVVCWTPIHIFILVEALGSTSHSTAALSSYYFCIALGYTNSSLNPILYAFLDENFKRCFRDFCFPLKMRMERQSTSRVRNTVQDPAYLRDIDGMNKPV
Trypsin, sequence (P00761 whole entry): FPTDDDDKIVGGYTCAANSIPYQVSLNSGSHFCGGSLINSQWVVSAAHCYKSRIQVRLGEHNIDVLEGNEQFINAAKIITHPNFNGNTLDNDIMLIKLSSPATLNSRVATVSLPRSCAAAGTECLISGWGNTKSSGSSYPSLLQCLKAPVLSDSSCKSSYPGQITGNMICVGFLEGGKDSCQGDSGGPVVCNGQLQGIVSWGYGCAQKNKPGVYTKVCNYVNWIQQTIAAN
Female germline-specific tumor suppressor gld-1, sequence (Q17339 whole entry): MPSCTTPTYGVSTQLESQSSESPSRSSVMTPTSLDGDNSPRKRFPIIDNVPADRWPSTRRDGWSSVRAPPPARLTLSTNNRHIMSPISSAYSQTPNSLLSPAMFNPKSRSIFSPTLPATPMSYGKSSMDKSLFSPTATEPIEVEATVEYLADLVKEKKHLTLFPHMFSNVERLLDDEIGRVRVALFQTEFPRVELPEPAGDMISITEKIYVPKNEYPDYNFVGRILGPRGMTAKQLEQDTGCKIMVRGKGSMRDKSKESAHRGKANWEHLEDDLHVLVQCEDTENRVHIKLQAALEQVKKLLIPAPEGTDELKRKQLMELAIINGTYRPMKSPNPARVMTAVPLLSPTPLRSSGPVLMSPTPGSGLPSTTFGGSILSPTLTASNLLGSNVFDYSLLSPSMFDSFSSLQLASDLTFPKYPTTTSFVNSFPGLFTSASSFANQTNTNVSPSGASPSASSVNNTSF
Beta-galactosidase, sequence (Q8VNN2 whole entry): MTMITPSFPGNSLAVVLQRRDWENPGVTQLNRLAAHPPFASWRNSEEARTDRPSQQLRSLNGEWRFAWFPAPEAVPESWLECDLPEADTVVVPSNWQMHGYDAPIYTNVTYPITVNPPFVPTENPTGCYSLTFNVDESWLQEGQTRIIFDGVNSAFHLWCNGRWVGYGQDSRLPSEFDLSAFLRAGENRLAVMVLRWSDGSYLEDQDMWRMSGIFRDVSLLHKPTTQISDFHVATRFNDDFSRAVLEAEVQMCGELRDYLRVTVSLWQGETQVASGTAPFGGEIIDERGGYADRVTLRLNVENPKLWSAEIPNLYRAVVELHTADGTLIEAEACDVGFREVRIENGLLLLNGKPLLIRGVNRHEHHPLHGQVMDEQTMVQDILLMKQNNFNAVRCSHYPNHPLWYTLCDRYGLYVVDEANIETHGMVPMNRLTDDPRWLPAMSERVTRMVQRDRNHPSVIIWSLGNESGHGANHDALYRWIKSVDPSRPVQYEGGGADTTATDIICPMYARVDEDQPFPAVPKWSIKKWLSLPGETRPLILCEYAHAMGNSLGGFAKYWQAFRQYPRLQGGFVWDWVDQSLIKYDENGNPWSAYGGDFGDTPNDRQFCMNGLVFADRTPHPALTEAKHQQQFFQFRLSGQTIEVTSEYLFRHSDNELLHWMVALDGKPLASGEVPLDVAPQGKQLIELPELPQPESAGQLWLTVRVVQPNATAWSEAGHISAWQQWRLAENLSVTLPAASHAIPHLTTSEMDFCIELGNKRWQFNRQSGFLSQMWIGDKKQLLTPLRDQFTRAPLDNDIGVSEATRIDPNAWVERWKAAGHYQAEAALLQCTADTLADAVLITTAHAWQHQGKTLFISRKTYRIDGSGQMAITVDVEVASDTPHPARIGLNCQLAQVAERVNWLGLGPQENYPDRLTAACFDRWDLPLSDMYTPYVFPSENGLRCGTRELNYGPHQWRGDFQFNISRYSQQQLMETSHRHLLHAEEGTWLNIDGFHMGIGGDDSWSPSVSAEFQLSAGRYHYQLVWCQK
G-protein coupled receptor 35, sequence (Q9HC97 whole entry): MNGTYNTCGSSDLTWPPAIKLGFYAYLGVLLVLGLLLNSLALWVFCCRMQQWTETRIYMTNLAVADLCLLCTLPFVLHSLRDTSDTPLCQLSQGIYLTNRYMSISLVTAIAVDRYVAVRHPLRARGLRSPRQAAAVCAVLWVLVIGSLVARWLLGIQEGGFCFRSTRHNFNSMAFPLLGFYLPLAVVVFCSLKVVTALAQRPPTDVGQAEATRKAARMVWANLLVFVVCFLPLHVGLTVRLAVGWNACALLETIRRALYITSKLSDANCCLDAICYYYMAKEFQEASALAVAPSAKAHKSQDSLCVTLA
Cytochrome P450 2C19, sequence (P33261 whole entry): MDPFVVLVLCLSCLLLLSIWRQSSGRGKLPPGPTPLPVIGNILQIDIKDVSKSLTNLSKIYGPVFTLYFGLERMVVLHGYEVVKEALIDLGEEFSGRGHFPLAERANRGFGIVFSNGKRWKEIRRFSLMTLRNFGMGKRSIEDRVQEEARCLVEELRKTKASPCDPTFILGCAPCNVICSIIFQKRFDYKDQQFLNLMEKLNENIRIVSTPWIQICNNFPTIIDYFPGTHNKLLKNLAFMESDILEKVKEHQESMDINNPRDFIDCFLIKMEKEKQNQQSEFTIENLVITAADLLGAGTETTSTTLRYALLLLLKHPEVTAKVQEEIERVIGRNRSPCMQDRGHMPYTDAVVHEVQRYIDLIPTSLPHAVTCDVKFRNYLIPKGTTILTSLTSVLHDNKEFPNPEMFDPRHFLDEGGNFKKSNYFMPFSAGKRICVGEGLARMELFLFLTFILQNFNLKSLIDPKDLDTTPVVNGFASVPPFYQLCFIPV
Cytochrome P450 2C9, sequence (P11712 whole entry): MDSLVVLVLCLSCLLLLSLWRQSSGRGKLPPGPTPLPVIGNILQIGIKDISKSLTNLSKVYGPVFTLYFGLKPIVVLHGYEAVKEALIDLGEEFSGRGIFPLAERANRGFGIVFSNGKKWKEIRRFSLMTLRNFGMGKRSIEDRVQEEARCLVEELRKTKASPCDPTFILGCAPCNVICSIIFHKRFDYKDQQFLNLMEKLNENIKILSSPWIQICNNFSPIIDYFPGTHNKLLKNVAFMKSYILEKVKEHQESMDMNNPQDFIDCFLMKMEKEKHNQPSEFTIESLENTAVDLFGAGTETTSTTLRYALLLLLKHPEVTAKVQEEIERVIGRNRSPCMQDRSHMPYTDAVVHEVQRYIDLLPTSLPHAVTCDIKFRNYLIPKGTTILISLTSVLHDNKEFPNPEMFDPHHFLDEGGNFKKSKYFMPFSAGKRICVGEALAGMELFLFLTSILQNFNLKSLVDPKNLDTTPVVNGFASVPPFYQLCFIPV

Cc1cccc(NC(=S)N/N=C/c2ccc([N+](=O)[O-])s2)c1
AC50 [1]: 3.86 µM (active) | IC50 [2]: > 66.6 µM (inactive) | AC50 [3]: 15.6 µM (active) | AC50 [4]: 1.84 µM (active) | EC50 [5]: 3.06 µM (active) | AC50 [6]: 1.78 µM (inconclusive) | EC50 [7]: 1.95 µM (active) | AC50 [8]: 1.12 µM (inconclusive)

Clc1ccc(CSc2nnc(-c3ccccn3)n2Cc2ccco2)c(Cl)c1
EC50 [9]: 1.86 µM (active) | IC50 [10]: > 32 µM (inactive) | EC50 [11]: > 32 µM (inactive) | EC50 [12]: > 32 µM (inactive) | IC50 [13]: > 32 µM (inactive) | IC50 [14]: > 32 µM (inactive) | EC50 [15]: > 32 µM (inactive) | EC50 [16]: > 32 µM (inactive) | EC50 [17]: 1.25 µM | EC50 [18]: 0.929 µM (active) | IC50 [19]: > 32 µM (inactive) | EC50 [20]: 2.21 µM

CCSC1=N/C(=C\c2ccc(OC)cc2)C(=O)N1
EC50 [21]: 3.35 µM (active)

CCOc1ccc(N(C)c2ccc(/C=C3/SC(=S)NC3=O)cc2)cc1
EC50 [22]: 5.43 µM (active) | EC50 [23]: > 150 µM (not active) | EC50 [24]: 20.7 µM (active) | IC50 [25]: 0.701 µM (active)

Cc1ccc(S(=O)(=O)c2cn(C)c3cc(N4CCOCC4)c(F)cc3c2=O)cc1
AC50 [26]: 55.8 µM (active)

Cc1ccc(S(=O)(=O)Nc2cc3c(C(=O)Nc4ccccc4)c(C)oc3c3ccccc23)cc1
IC50 [27]: 0.725 µM (active) | IC50 [28]: > 75.4 µM (not active)
